Data reported in publication PMC9611259, “Antimicrobial Peptides Active in In Vitro Models of Endodontic Bacterial Infections Modulate Inflammation in Human Cardiac Fibroblasts” (Pharmaceutics, 2022).
In brackets after ≈: the same amount, converted by molar mass. Like-named read-outs stand apart in the source and are kept apart here. Where a SMILES comes first, the peptide text is derived from it. Bridges are numbered along the chain shown (N, C = ends). Roman numbers before positions name the chains, in order. [ ]: non-standard residue; d: D form. βAla = NCCC(=O)O

Experiments:
E. coli LC711 [1] = format: cell-based, Escherichia coli
Method: (§1) The bacteria reported in Table 1 were used for conventional susceptibility testing experiments. M33D and M33i/l MICs were determined in triplicate on reference and clinical strains using a microdilution assay, performed according to the guidelines of the Clinical and Laboratory Standards Institute. Briefly, strains were grown on Mueller–Hinton (MH) agar plates (Becton Dickinson, Franklin Lakes, NJ, USA) and a single colony for each strain was picked using a sterile cotton swab, streaked in sterile cation-supplemented MH, and measured with a densitometer (Densichek, bioMèrieux, Marcy l’Etoile, France) up to 0.15 optical density. Wells of a microtiter plate containing 50 μL serial-doubling dilutions of the peptides were inoculated with an equal volume of bacterial suspension. The final bacterial inoculum was 5 × 10^4 CFU/well in a volume of 100 μL. […] Assays were performed in triplicate, and the median MIC values were recorded.

E. coli TG1 [2] = format: cell-based, Escherichia coli; details: reference strain; CLSI microdilution, 5 × 10^4 CFU/well, 35° 18–20 h, median of triplicate
Method: as §1

E. faecalis ATCC 51299 [3] = format: cell-based, Enterococcus faecalis
Method: as §1

E. faecalis Fi74B1 = format: cell-based, Enterococcus faecalis
Method: as §1

E. faecalis Fi74B4 = format: cell-based, Enterococcus faecalis
Method: as §1

E. faecalis PE [4] = format: cell-based, Enterococcus faecalis
Method: as §1

C. albicans ATCC 90028 = format: cell-based
C. glabrata ATCC 90030 = format: cell-based
C. krusei ATCC 6268 = format: cell-based
E. faecalis ATCC 51299 [5] = format: cell-based, Enterococcus faecalis; details: 24 h preformed biofilm challenged with peptide 14 h at 37 °C, crystal violet OD595, triplicate wells
Method: (§2) For MBIC, the bacterial suspension (200 μL) of E. faecalis PE, E. faecalis 51299, E. coli TG1, or E. coli LC711, obtained as above, was added to wells in triplicate, in a 96-well U-bottom plate and incubated at 37 °C for 24h. The supernatant was removed, and 200 μL M33D and M33i/l diluted in TSB was added to the wells in twofold serial dilutions of each peptide.
(§3) Untreated bacteria were used as positive control. After 14 h of static incubation at 37 °C, wells were washed thrice with PBS and fixed with PFA 4% in PBS (200 μL) for 30 min at room temperature. Wells were then washed three times, and crystal violet (1% in water) was added and incubated for 30 min in the dark. Wells were again washed, and the color dissolved with ethanol/acetone 80:20. Color was read at 595 nm. The MBIC is the lowest concentration of an antibiotic that results in an OD595 nm difference of ≤10% of the mean of two control well readings.
(§4) Biofilm inhibition activity was evaluated on the basis of two parameters: the biofilm prevention concentration (BPC) and the minimal biofilm inhibition concentration (MBIC). The BPC is the lowest concentration of peptide that results in 10% lower biofilm formation compared to untreated controls. The biofilm was measured after removing planktonic cells by washing the wells, previously incubated for 24 h with the bacteria and the peptide. MBIC is the lowest concentration of peptide that results in a 10% reduction in preformed biofilm compared to untreated controls. A 24 h biofilm was challenged with serial dilutions of the peptides for 14 h. Then after removal of planktonic cells, the residual biofilm was measured. Crystal violet absorbance at […] was used to measure biofilm in the case of both parameters.

E. faecalis PE [6] = format: cell-based, Enterococcus faecalis; details: 24 h preformed biofilm challenged with peptide 14 h at 37 °C, crystal violet OD595, triplicate wells
Method: as §2, §3, §4

E. coli LC711 [7] = format: cell-based, Escherichia coli; details: 24 h preformed biofilm challenged with peptide 14 h at 37 °C, crystal violet OD595, triplicate wells
Method: as §2, §3, §4

E. coli TG1 [8] = format: cell-based, Escherichia coli; details: 24 h preformed biofilm challenged with peptide 14 h at 37 °C, crystal violet OD595, triplicate wells
Method: as §2, §3, §4

C. striatum ATCC = format: cell-based
Method: as §1

[9] = tested on: Enterococcus faecalis and faecium; format: cell-based
Method: as §1

S. pneumoniae ATCC 49619 = format: cell-based
Method: as §1

S. pyogenes CCUG2557 = format: cell-based
Method: as §1

[10] = tested on: Staphylococcus aureus and epidermidis; format: cell-based
Method: as §1

Candida species = format: cell-based
in vitro = in vitro ADME; details: human, serum
Method: A pool of sera from healthy volunteers (n = 5) was diluted to 50% with RPMI 1640 medium. A 5 μg/mL solution of the peptides in 50% serum was incubated at 37 °C for different time intervals (2, 4, 24, 48, and 72 h). At the established time, trichloroacetic acid was added at a 7.5% concentration, and the sample was centrifuged at 12,000–13,000× g for 15 min. Part of the supernatant was used for the MALDI-TOF analysis (2 μL) and part (250 μL) for the HPLC analysis, after being diluted with 1% TFA (750 μL). Time-zero HPLC and MS-spectroscopy spectra were obtained immediately after mixing the peptide with 50% serum. The presence of the intact peptide was determined in HPLC by spotting and integrating the peptide peak at the correct retention time. The identity of the peptide peak was further also confirmed by MALDI mass spectrometry.

[11] = Eukaryotic cell viability assay (MTT); format: cell-based, murine; details: mouse
Method: RAW 264.7 cells, 5 × 10^3 per well, were seeded in 96-well plates and incubated for 24 h at 37 °C in a 5% CO2 atmosphere. A 100 μL volume of peptides at different concentrations in fresh medium was then added to the wells and kept for 24 h. Then 20 μL MTT (5 mg/mL) was added to each well, and the plate was incubated at 37 °C for 3 h. Finally, 120 μL HCl 4 mM in isopropanol was added to each well to dissolve the formazan crystals. Optical density was measured with a microplate reader (Bio-Rad, Hercules, CA, USA) at 570 nm. Cell viability was calculated by comparing the values of treated with those of untreated cells. Curves and EC50 were calculated using GraphPad Prism 5.03 software.

P. aeruginosa ATCC 27853 = format: cell-based, Pseudomonas aeruginosa
Method: as §1

P. aeruginosa AV 65 = format: cell-based, Pseudomonas aeruginosa
Method: as §1

K. pneumoniae 7086042 = format: cell-based, Klebsiella pneumoniae
Method: as §1

K. pneumoniae ATCC 13833 = format: cell-based, Klebsiella pneumoniae
Method: as §1

E. coli ATCC 25922 = format: cell-based, Escherichia coli
Method: as §1

E. coli W03BG0025 = format: cell-based, Escherichia coli
Method: as §1

S. aureus 3851 = format: cell-based, Staphylococcus aureus
Method: as §1

S. aureus USA 300 = format: cell-based, Staphylococcus aureus
Method: as §1

S. epidermidis 6154 = format: cell-based
Method: as §1

[12] = tested on: S. epidermidis ATCC 14990; format: cell-based
Method: as §1

E. faecalis = details: standard-of-care antibiotics against E. faecalis; cited from earlier work
Method: As reported in Table 2, biofilm inhibition was tested against two strains of E. faecalis, ATCC 51,299 and PE endodontic isolate, and two strains of E. coli, TG1 reference strain and LC711 clinical isolate (Table 2). The BPC of M33D was equal to the MIC against E. faecalis reference strain ATCC 51,299 and clinical isolate PE. The BPC of M33i/l was double and equal to the MIC in E. faecalis reference strain and clinical isolate, respectively. The MBIC of both peptides against E. faecalis reference strain and PE was 6 μM, i.e., from two to three times the MIC. The results are particularly promisi ...

For `CC[C@@H](C)[C@@H](NC(=O)[C@@H](CCCCN)NC(=O)[C@H](N)CCCCN)C(=O)N[C@H](CCCNC(=N)N)C(=O)N[C@@H](C(=O)N[C@H](CCCNC(=N)N)C(=O)N[C@H](CC(C)C)C(=O)N[C@H](CO)C(=O)N[C@H](C)C(=O)NCCCC[C@H](NC(=O)[C@@H](C)NC(=O)[C@@H](CO)NC(=O)[C@@H](CC(C)C)NC(=O)[C@@H](CCCNC(=N)N)NC(=O)[C@H](NC(=O)[C@@H](CCCNC(=N)N)NC(=O)[C@H](NC(=O)[C@@H](CCCCN)NC(=O)[C@H](N)CCCCN)[C@H](C)CC)C(C)C)C(=O)NCCCC[C@H](NC(=O)[C@H](CCCCNC(=O)[C@@H](C)NC(=O)[C@@H](CO)NC(=O)[C@@H](CC(C)C)NC(=O)[C@@H](CCCNC(=N)N)NC(=O)[C@H](NC(=O)[C@@H](CCCNC(=N)N)NC(=O)[C@H](NC(=O)[C@@H](CCCCN)NC(=O)[C@H](N)CCCCN)[C@H](C)CC)C(C)C)NC(=O)[C@@H](C)NC(=O)[C@@H](CO)NC(=O)[C@@H](CC(C)C)NC(=O)[C@@H](CCCNC(=N)N)NC(=O)[C@H](NC(=O)[C@@H](CCCNC(=N)N)NC(=O)[C@H](NC(=O)[C@@H](CCCCN)NC(=O)[C@H](N)CCCCN)[C@H](C)CC)C(C)C)C(=O)NCCC(=O)O)C(C)C` [M33D], the MIC (E. coli LC711 [1]; LC711) was 1.5 µM (≈ 7.02 µg/mL), the MIC (E. coli TG1 [2]) was 1.5 µM (≈ 7.02 µg/mL) and the MIC (E. faecalis ATCC 51299 [3]) was 3 (16) μM. The MIC (E. faecalis Fi74B1) was 0.8 (4) μM, the MIC (E. faecalis Fi74B4) was 1.5 (8) μM and the MIC (E. faecalis PE [4]) was 1.5 (8) μM. For the same compound, the MIC (C. albicans ATCC 90028) was 5 (24) μM, the MIC (C. glabrata ATCC 90030) was 12 (64) μM and the MIC (C. krusei ATCC 6268) was 6 (32) μM. It also gave an MBIC (E. faecalis ATCC 51299 [5]) of 6 µM, an MBIC (E. faecalis PE [6]) of 6 µM and an MBIC (E. coli LC711 [7]) of 3 µM. The MBIC (E. coli TG1 [8]) was 3 µM, the MIC (C. striatum ATCC) was 1.5 µM (≈ 7.02 µg/mL) and the “MIC range against Enterococcus faecalis and faecium” value [9] was 0.8 to 3 µM. The MIC (S. pneumoniae ATCC 49619) was 6 (32) μM, the MIC (S. pyogenes CCUG2557) was 6 (32) μM and the “MIC range against Staphylococcus aureus and epidermidis” value [10] was 0.4 to 1.5 µM. For the same compound, the “MIC range against Candida species” value (Candida species) was 5 to 12 µM, the remaining at 72 h, 5 μg/mL (in vitro) was 31% and the EC50 at 24 h ([11]; 24 h incubation at 37 °C, MTT, n = 3, read-out: EC50 cytotoxicity) was 30 µM.
For `CC(C)C[C@@H](NC(=O)[C@@H](CCCCN)NC(=O)[C@H](N)CCCCN)C(=O)N[C@H](CCCNC(=N)N)C(=O)N[C@@H](C(=O)N[C@H](CCCNC(=N)N)C(=O)N[C@H](CC(C)C)C(=O)N[C@H](CO)C(=O)N[C@H](C)C(=O)NCCCC[C@H](NC(=O)[C@@H](C)NC(=O)[C@@H](CO)NC(=O)[C@@H](CC(C)C)NC(=O)[C@@H](CCCNC(=N)N)NC(=O)[C@H](NC(=O)[C@@H](CCCNC(=N)N)NC(=O)[C@@H](CC(C)C)NC(=O)[C@@H](CCCCN)NC(=O)[C@H](N)CCCCN)C(C)C)C(=O)NCCCC[C@H](NC(=O)[C@H](CCCCNC(=O)[C@@H](C)NC(=O)[C@@H](CO)NC(=O)[C@@H](CC(C)C)NC(=O)[C@@H](CCCNC(=N)N)NC(=O)[C@H](NC(=O)[C@@H](CCCNC(=N)N)NC(=O)[C@@H](CC(C)C)NC(=O)[C@@H](CCCCN)NC(=O)[C@H](N)CCCCN)C(C)C)NC(=O)[C@@H](C)NC(=O)[C@@H](CO)NC(=O)[C@@H](CC(C)C)NC(=O)[C@@H](CCCNC(=N)N)NC(=O)[C@H](NC(=O)[C@@H](CCCNC(=N)N)NC(=O)[C@@H](CC(C)C)NC(=O)[C@@H](CCCCN)NC(=O)[C@H](N)CCCCN)C(C)C)C(=O)NCCC(=O)O)C(C)C` [M33i/l] (I: H-[dK][dK][dL][dR][dV][dR][dL][dS][dA]KK[βAla]-OH / II: H-[dK][dK][dL][dR][dV][dR][dL][dS][dA]K / III: H-[dK][dK][dL][dR][dV][dR][dL][dS][dA] / IV: H-[dK][dK][dL][dR][dV][dR][dL][dS][dA]; amide I:10-IV:C, I:11-II:C, II:10-III:C), the MIC (P. aeruginosa ATCC 27853) was 0.8 (4) μM, the MIC (P. aeruginosa AV 65) was 1.5 (8) μM and the MIC (K. pneumoniae 7086042) was 6 (32) μM. The MIC (K. pneumoniae ATCC 13833) was 3 (16) μM, the MIC (E. coli ATCC 25922) was 3 (16) μM and the MIC (E. coli LC711 [1]; ColR (colistin-resistant) clinical isolate, CLSI microdilution, 5 × 10^4 CFU/well, 35° 18–20 h, median of triplicate) was 0.3 (1.6) μM. The MIC (E. coli TG1 [2]) was 1.5 µM (≈ 7.02 µg/mL), the MIC (E. coli W03BG0025) was 3 (16) μM and the MIC (S. aureus 3851) was 0.8 (4) μM. For the same compound, the MIC (S. aureus USA 300) was 1.5 (8) μM, the MIC (E. faecalis ATCC 51299 [3]) was 1.5 (8) μM and the MIC (E. faecalis PE [4]) was 1.5 (8) μM. It also gave an MBIC (E. faecalis ATCC 51299 [5]) of 6 µM, an MBIC (E. faecalis PE [6]) of 6 µM and an MBIC (E. coli LC711 [7]) of 3 µM. The MBIC (E. coli TG1 [8]) was 3 µM, the MIC (S. epidermidis 6154) was 0.8 (4) μM and the MIC [12] was 0.8 (4) μM. It also gave a remaining at 72 h, 5 μg/mL (in vitro) of 25% and an EC50 at 24 h [11] of 18 µM.
In the case of `CC1(C)S[C@@H]2[C@H](NC(=O)[C@H](N)c3ccccc3)C(=O)N2[C@H]1C(=O)O` [ampicillin], the “MBIC as multiple of the MIC” value (E. faecalis) is listed as 2048 times the MIC.
In the case of `CC(=O)NC[C@H]1CN(c2ccc(N3CCOCC3)c(F)c2)C(=O)O1` [linezolid], the “MBIC as multiple of the MIC” value (E. faecalis) is listed as 1024 times the MIC.
